# From patent US20220168430A1, “THERAPEUTIC METHODS FOR TREATING HEPATITIS B” (priority 2019, published 2022)
# Where two headings read alike, the source gives them in different places.
# Tested on: HBV rcDNA
# Test: Dual agent combination in HepDE19 cells, rcDNA by Quantigene 2.0 bDNA assay (Examples 5-8)
# Type: cell-based, HBV; HepDE19 (HepG2 human hepatocarcinoma derived)
# Conditions: Hepatitis B virus; for inhibition at 0.005 µM: Compound 1 0.005 μM alone; for inhibition at 0.01 µM: Compound 1 0.010 μM alone; for inhibition at 0.02 µM: Compound 1 0.020 μM alone; for inhibition at 0.039 µM: Compound 1 0.039 μM alone; for inhibition at 0.156 µM: Compound 1 0.156 μM alone
# Description: In vitro dual agent combination studies were conducted using the method of Prichard and Shipman 1990 (Prichard M N, Shipman C, Jr. 1990. Antiviral Res 14:181-205). The HepDE19 cell culture system is a HepG2 (human hepatocarcinoma) derived cell line that supports HBV DNA replication and cccDNA formation under control the control of a CMV Tet-off promoter system (Guo et al. 2007. J Virol 81:12472-84). HepDE19 (50,000 cells/well) were plated in 96 well collagen-coated tissue-culture treated microtiter plates in DMEM/F12 medium supplemented with 10% fetal bovine serum+1% penicillin-streptomycin with tetracycline (1 μg/mL) and incubated in a humidified incubator at 37° C. and 5% CO2 overnight. Next day, the cells were switched to fresh medium without tetracycline and incubated for 4 hrs at 37° C. and 5% CO2. The cells were switched to fresh medium and treated with inhibitor A and inhibitor B, at concentration range spanning their respective EC50 values. […] The two inhibitors were tested both singly as well as in combinations in a checkerboard fashion such that each concentration of inhibitor A was combined with each concentration of inhibitor B to determine their combination effects on inhibition of rcDNA production. There were four replicates of each concentration combination in each experiment. The plates were incubated for 7 days in a humidified incubator at 37° C. and 5% CO2. The level of rcDNA present in the wells was measured using a Quantigene 2.0 bDNA assay kit (Affymetrix, Santa Clara, Calif.) with HBV specific custom probe set (genotype D ayw) and according to the manufacturer's instructions and read using a luminescence plate reader and the relative luminescence units (RLU) data generated from each well was calculated as % inhibition of the untreated control wells and analyzed using the MacSynergy II program to determine whether the combinations were synergistic, additive or antagonistic using the interpretive guidelines established by Prichard and Shipman (Prichard M N, Shipman C, Jr. 1990. […] Each experiment was repeated at least three times and the averages and standard deviations of individual determinations was calculated to derive the conclusion. Concurrently, in each experiment, the effect of inhibitor combinations on cell viability was assessed using replicate plates in triplicates that were used to determine the ATP content as a measure of cell viability using the Cell-Titer Glo reagent (Promega, Madison, Wis.) as per the manufacturer's instructions.
# [1] = HepDE19, Expt 2, read-out: AVERAGE % INHIBITION
# [2] = HepDE19, Expt 3 (with ETV), read-out: ADDITIVE INHIBITION
# [3] = HepDE19, Expt 3 (with ETV), read-out: AVERAGE % INHIBITION
# [4] = HepDE19, Expt 3 (with TDF), read-out: ADDITIVE INHIBITION
# [5] = HepDE19, Expt 3 (with TDF), read-out: AVERAGE % INHIBITION
smiles,measurement,setting,value
Cn1cnc(COC(=O)N[C@H]2CCc3c(C(=O)Nc4ccc(F)c(Cl)c4)ccc(F)c32)n1 [Compound 1],inhibition at 0.005 µM,[1],7.51%
same,inhibition at 0.01 µM,[1],26.3%
same,inhibition at 0.02 µM,[1],40.8%
same,inhibition at 0.039 µM,[1],39.8%
same,inhibition at 0.156 µM,[1],87.4%
same,inhibition at 1.25 µM,"HepDE19, Expt 2, Compound 1 1.250 μM alone, read-out: AVERAGE % INHIBITION",98.4%
same,inhibition at 0.005 µM,[2],-5.5%
same,inhibition at 0.005 µM,[3],-5.5%
same,inhibition at 0.01 µM,[2],6.89%
same,inhibition at 0.01 µM,[3],6.89%
same,inhibition at 0.02 µM,[2],14.2%
same,inhibition at 0.02 µM,[3],14.2%
same,inhibition at 0.039 µM,[2],43.7%
same,inhibition at 0.039 µM,[3],43.7%
same,inhibition at 0.156 µM,[2],80.6%
same,inhibition at 0.156 µM,[3],80.6%
same,inhibition at 1.25 µM,"HepDE19, Expt 3 (with ETV), Compound 1 1.25 μM alone, read-out: ADDITIVE INHIBITION",98.1%
same,inhibition at 1.25 µM,"HepDE19, Expt 3 (with ETV), Compound 1 1.25 μM alone, read-out: AVERAGE % INHIBITION",98.1%
same,inhibition at 0.005 µM,[4],18.8%
same,inhibition at 0.005 µM,[5],18.8%
same,inhibition at 0.01 µM,[4],27.3%
same,inhibition at 0.01 µM,[5],27.3%
same,inhibition at 0.02 µM,[4],44.5%
same,inhibition at 0.02 µM,[5],44.5%
same,inhibition at 0.039 µM,[4],66.8%
same,inhibition at 0.039 µM,[5],66.8%
same,inhibition at 0.156 µM,[4],83.6%
same,inhibition at 0.156 µM,[5],83.6%
same,inhibition at 1.25 µM,"HepDE19, Expt 3 (with TDF), Compound 1 1.250 μM alone, read-out: ADDITIVE INHIBITION",98.8%
same,inhibition at 1.25 µM,"HepDE19, Expt 3 (with TDF), Compound 1 1.250 μM alone, read-out: AVERAGE % INHIBITION",98.8%
same,inhibition at 0.007 µM,"HepDE19, Expt 3, Cmpd 1 0.007 μM alone, read-out: AVERAGE % INHIBITION",6.78%
same,inhibition at 0.067 µM,"HepDE19, Expt 3, Cmpd 1 0.067 μM alone",64.7%
same,inhibition at 0.2 µM,"HepDE19, Expt 3, Cmpd 1 0.200 μM alone",92.7%
same,inhibition at 0.6 µM,"HepDE19, Expt 3, Cmpd 1 0.600 μM alone",97.4%
same,inhibition at 0.007 µM,"HepDE19, Expt 3, Compound 1 0.007 μM alone, read-out: AVERAGE % INHIBITION",-51.7%
same,inhibition at 0.067 µM,"HepDE19, Expt 3, Compound 1 0.067 μM alone",51.8%
same,inhibition at 0.2 µM,"HepDE19, Expt 3, Compound 1 0.200 μM alone",85.5%
same,inhibition at 0.6 µM,"HepDE19, Expt 3, Compound 1 0.600 μM alone",94.6%
same,inhibition at 0.007 µM,"HepDE19, Expt 4, Compound 1 0.007 μM alone, read-out: AVERAGE % INHIBITION",11.7%
same,inhibition at 0.067 µM,"HepDE19, Expt 4, Compound 1 0.067 μM alone",52.8%
same,inhibition at 0.2 µM,"HepDE19, Expt 4, Compound 1 0.200 μM alone",90%
same,inhibition at 0.6 µM,"HepDE19, Expt 4, Compound 1 0.600 μM alone",96.4%
